Data: the NIST ThermoML archive (doi:10.1016/j.jct.2009.01.014)

Conditions: for molar entropy: 101.33 kPa, Crystal 1, Vacuum adiabatic calorimetry

[Al+3].[Al+3].[Co+2].[O-2].[O-2].[O-2].[O-2] [aluminium cobalt oxide]
Conditions	Triple point temperature [K]	molar entropy [J/K/mol]
15 K	–	2.91
20 K	–	4.1
25 K	–	5.02
30 K	–	5.79
35 K	–	6.5
40 K	–	7.21
45 K	–	7.95
50 K	–	8.75
55 K	–	9.61
60 K	–	10.56
65 K	–	11.58
70 K	–	12.68
75 K	–	13.85
80 K	–	15.1
85 K	–	16.42
90 K	–	17.81
95 K	–	19.26
100 K	–	20.77
105 K	–	22.33
110 K	–	23.96
120 K	–	27.36
130 K	–	30.94
140 K	–	34.68
150 K	–	38.55
160 K	–	42.52
170 K	–	46.6
180 K	–	50.73
190 K	–	54.92
200 K	–	59.14
210 K	–	63.39
220 K	–	67.65
230 K	–	71.9
240 K	–	76.15
250 K	–	80.37
260 K	–	84.57
270 K	–	88.74
280 K	–	92.88
290 K	–	97
298.15 K	–	100.31
300 K	–	101.06
310 K	–	105.07
320 K	–	109.05
330 K	–	112.99
340 K	–	116.88
350 K	–	120.72
360 K	–	124.52
370 K	–	128.28
380 K	–	131.99
390 K	–	135.65
Crystal 2, Adiabatic calorimetry	9	–
